Assay results as given in PubChem BioAssay AID248 (DTP/NCI, 2004).
Several values for one entry are separate records, joined by “and”; a condition that tells them apart may be missing. Identical values can stand only once. Inconclusive results and toxic doses are left out.

Test system: L1210 leukemia ip in BDF1 mice, survival T/C
Assay: NCI In Vivo Anticancer Drug Screen. Data for tumor model L1210 Leukemia (intraperitoneal) in B6D2F1 (BDF1) mice
Conditions: endpoint: mean survival time, higher = longer survival
How it was run: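 Value reflects the ratio of survival in compound-treated mice to survival in vehicle-treated controls, with both groups carrying the same transplanted tumor.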

[1] = dose: 100.0 mg/kg/injection, schedule: Q01DX001 (ip), vehicle: saline
[2] = dose: 100.0 mg/kg/injection, schedule: Q01DX009 (ip), vehicle: saline with Tween-80
[3] = dose: 100.0 mg/kg/injection, schedule: Q04DX003 (ip), vehicle: saline
[4] = dose: 200.0 mg/kg/injection, schedule: Q01DX001 (ip), vehicle: saline
[5] = dose: 200.0 mg/kg/injection, schedule: Q01DX009 (ip), vehicle: saline with Tween-80
[6] = dose: 200.0 mg/kg/injection, schedule: Q04DX003 (ip), vehicle: saline
[7] = dose: 400.0 mg/kg/injection, schedule: Q01DX001 (ip), vehicle: saline
[8] = dose: 400.0 mg/kg/injection, schedule: Q01DX009 (ip), vehicle: saline with Tween-80
[9] = dose: 100.0 mg/kg/injection, schedule: Q04DX003 (ip), vehicle: saline with Tween-80
[10] = dose: 100.0 mg/kg/injection, schedule: Q01DX009 (ip), vehicle: Klucel (hydroxypropylcellulose) (HPC)
[11] = dose: 200.0 mg/kg/injection, schedule: Q01DX009 (ip), vehicle: Klucel (hydroxypropylcellulose) (HPC)
[12] = dose: 400.0 mg/kg/injection, schedule: Q01DX009 (ip), vehicle: Klucel (hydroxypropylcellulose) (HPC)
[13] = dose: 25.0 mg/kg/injection, schedule: Q01DX009 (ip), vehicle: saline
[14] = dose: 50.0 mg/kg/injection, schedule: Q01DX009 (ip), vehicle: saline
[15] = dose: 100.0 mg/kg/injection, schedule: Q01DX009 (ip), vehicle: saline
[16] = dose: 100.0 mg/kg/injection, schedule: Q01DX001 (ip), vehicle: saline with Tween-80
[17] = dose: 50.0 mg/kg/injection, schedule: Q01DX009 (ip), vehicle: saline with Tween-80

## O=C(NCCO)Nc1cccc2c1CCCC2
dose: 100.0 mg/kg/injection, schedule: Q04DX002 (ip), vehicle: saline with Tween-80
  T/C: 108 % of control
dose: 200.0 mg/kg/injection, schedule: Q04DX002 (ip), vehicle: saline with Tween-80
  T/C: 104 % of control
dose: 400.0 mg/kg/injection, schedule: Q04DX002 (ip), vehicle: saline with Tween-80
  T/C: 87 % of control

## O=C(NC1CCCC2C(NC(=O)c3ccccc3)CCCC12)c1ccccc1 (stereo unspecified)
[1]
  T/C: 91 % of control
[2]
  T/C: 89 % of control
[3]
  T/C: 92 % of control
[4]
  T/C: 91 % of control
[5]
  T/C: 89 % of control
[6]
  T/C: 91 % of control
[7]
  T/C: 94 % of control
[8]
  T/C: 95 % of control
dose: 400.0 mg/kg/injection, schedule: Q04DX003 (ip), vehicle: saline
  T/C: 86 % of control

## CC12CCC(=O)C=C1CCCC2=O (stereo unspecified)
[3]
  T/C: 95 % of control
[6]
  T/C: 101 % of control

## O=C(O)c1cc(=O)cc(C(=O)O)o1
[9]
  T/C: 95 % of control

## CCOc1ccc(NC(C)=O)c(OC(C)=O)c1
dose: 75.0 mg/kg/injection, schedule: Q01DX001 (ip), vehicle: carboxymethylcellulose (CMC)
  T/C: 95 % of control and 100 % of control
dose: 150.0 mg/kg/injection, schedule: Q01DX001 (ip), vehicle: carboxymethylcellulose (CMC)
  T/C: 100 % of control
dose: 300.0 mg/kg/injection, schedule: Q01DX001 (ip), vehicle: carboxymethylcellulose (CMC)
  T/C: 93 % of control

## Cc1nc(N)[nH]c(=O)c1CCCN=Cc1ccccc1
[10]
  T/C: 101 % of control
[11]
  T/C: 92 % of control
[12]
  T/C: 95 % of control

## C1CCC2[N-]CC3CCCCC3[N-]CC3CCCCC3[N-]CC3CCCCC3[N-]CC2C1.[Ni+2].[O-][Cl+3]([O-])([O-])O (stereo unspecified)
dose: 12.5 mg/kg/injection, schedule: Q04DX002 (ip), vehicle: saline with Tween-80
  T/C: 101 % of control
dose: 25.0 mg/kg/injection, schedule: Q04DX002 (ip), vehicle: saline with Tween-80
  T/C: 108 % of control
dose: 50.0 mg/kg/injection, schedule: Q04DX002 (ip), vehicle: saline with Tween-80
  T/C: 111 % of control

## Clc1ccc(C(c2ccc(Cl)cc2)C(Cl)(Cl)Cl)cc1
dose: 12.0 mg/kg/injection, schedule: Q01DX009 (ip), vehicle: saline
  T/C: 95 % of control
dose: 12.5 mg/kg/injection, schedule: Q01DX009 (ip), vehicle: acetone
  T/C: 97 % of control
dose: 25.0 mg/kg/injection, schedule: Q01DX009 (ip), vehicle: Klucel (hydroxypropylcellulose) (HPC)
  T/C: 90 % of control
dose: 25.0 mg/kg/injection, schedule: Q01DX009 (ip), vehicle: acetone
  T/C: 93 % of control
[13]
  T/C: 92 % of control
dose: 50.0 mg/kg/injection, schedule: Q01DX009 (ip), vehicle: Klucel (hydroxypropylcellulose) (HPC)
  T/C: 92 % of control
dose: 50.0 mg/kg/injection, schedule: Q01DX009 (ip), vehicle: acetone
  T/C: 100 % of control and 86 % of control
dose: 100.0 mg/kg/injection, schedule: Q01DX001 (ip), vehicle: acetone
  T/C: 93 % of control
dose: 100.0 mg/kg/injection, schedule: Q01DX009 (ip), vehicle: acetone
  T/C: 94 % of control
dose: 200.0 mg/kg/injection, schedule: Q01DX001 (ip), vehicle: acetone
  T/C: 87 % of control
[4]
  T/C: 90 % of control
dose: 200.0 mg/kg/injection, schedule: Q01DX009 (ip), vehicle: acetone
  T/C: 97 % of control
dose: 400.0 mg/kg/injection, schedule: Q01DX001 (ip), vehicle: acetone
  T/C: 92 % of control
dose: 800.0 mg/kg/injection, schedule: Q01DX001 (ip), vehicle: acetone
  T/C: 88 % of control
dose: 800.0 mg/kg/injection, schedule: Q01DX001 (ip), vehicle: saline
  T/C: 87 % of control

## OCC1CC(n2cnc3c(Cl)ncnc32)C(O)C1O (stereo unspecified)
dose: 75.0 mg/kg/injection, schedule: Q01DX009 (ip), vehicle: saline with Tween-80
  T/C: 107 % of control
[2]
  T/C: 101 % of control
dose: 150.0 mg/kg/injection, schedule: Q01DX009 (ip), vehicle: saline with Tween-80
  T/C: 92 % of control

## CCCCCCC[As](=O)(O)O
dose: 6.25 mg/kg/injection, schedule: Q01DX009 (ip), vehicle: Klucel (hydroxypropylcellulose) (HPC)
  T/C: 99 % of control
dose: 12.5 mg/kg/injection, schedule: Q01DX009 (ip), vehicle: Klucel (hydroxypropylcellulose) (HPC)
  T/C: 101 % of control

## COc1ccc(Oc2cc(CC3c4cc(OC)c(OC)cc4CCN3C)c([N+](=O)[O-])cc2OC)cc1OC (stereo unspecified)
dose: 12.5 mg/kg/injection, schedule: Q01DX009 (ip), vehicle: saline
  T/C: 93 % of control
[13]
  T/C: 102 % of control
[14]
  T/C: 96 % of control
[15]
  T/C: 108 % of control

## Cc1ccc(Cl)c(Br)c1
[1]
  T/C: 94 % of control
[4]
  T/C: 96 % of control
[7]
  T/C: 107 % of control

## COc1ncnc2c1nnn2C1OC(CO)C(O)C1O (stereo unspecified)
dose: 25.0 mg/kg/injection, schedule: Q01DX001 (ip), vehicle: saline with Tween-80
  T/C: 102 % of control
[16]
  T/C: 104 % of control

## O=C1C2C=CC=CC1C1C=CC2C1
[16]
  T/C: 93 % of control
dose: 200.0 mg/kg/injection, schedule: Q01DX001 (ip), vehicle: saline with Tween-80
  T/C: 104 % of control
dose: 400.0 mg/kg/injection, schedule: Q01DX001 (ip), vehicle: saline with Tween-80
  T/C: 101 % of control

## CCOC(=O)c1cc(Br)cc(Br)c1N/N=[N+](\C)[O-]
[17]
  T/C: 105 % of control
[2]
  T/C: 98 % of control
[5]
  T/C: 110 % of control

## CC1C=CCP1(C)=O (stereo unspecified)
[2]
  T/C: 91 % of control
[5]
  T/C: 96 % of control
[8]
  T/C: 94 % of control

## CCCCCCCC(=O)N1C=CN(C(=O)CCCCCCC)C1
dose: 30.0 mg/kg/injection, schedule: Q01DX001 (ip), vehicle: saline
  T/C: 100 % of control
[1]
  T/C: 94 % of control
dose: 300.0 mg/kg/injection, schedule: Q01DX001 (ip), vehicle: saline
  T/C: 94 % of control

## NC(=O)Nc1n[nH]c(-c2ccccc2)n1
[15]
  T/C: 90 % of control

## CCOc1cccc2c(=O)c(C(=O)O)cn(CC)c12
dose: 100.0 mg/kg/injection, schedule: Q04DX002 (ip), vehicle: Klucel (hydroxypropylcellulose) (HPC)
  T/C: 93 % of control
dose: 200.0 mg/kg/injection, schedule: Q04DX002 (ip), vehicle: Klucel (hydroxypropylcellulose) (HPC)
  T/C: 107 % of control
dose: 400.0 mg/kg/injection, schedule: Q04DX002 (ip), vehicle: Klucel (hydroxypropylcellulose) (HPC)
  T/C: 104 % of control

## CCOC(=O)CCC(NC(=O)Cc1ccc(NC(=O)C(F)(F)F)cc1)C(=O)OCC (stereo unspecified)
[10]
  T/C: 105 % of control
[11]
  T/C: 96 % of control
[12]
  T/C: 98 % of control

## COc1cc2c(cc1OCc1ccccc1)C=CN(C(=O)c1ccccc1)C2C#N (stereo unspecified)
[13]
  T/C: 100 % of control
[14]
  T/C: 94 % of control
[15]
  T/C: 94 % of control
dose: 200.0 mg/kg/injection, schedule: Q01DX009 (ip), vehicle: saline
  T/C: 93 % of control
dose: 400.0 mg/kg/injection, schedule: Q01DX009 (ip), vehicle: saline
  T/C: 98 % of control

## COc1cc(C=NCCN=Cc2cc(OC)c(OC)c(OC)c2)cc(OC)c1OC
[17]
  T/C: 94 % of control
dose: 50.0 mg/kg/injection, schedule: Q04DX003 (ip), vehicle: saline with Tween-80
  T/C: 94 % of control
[2]
  T/C: 100 % of control
[9]
  T/C: 98 % of control
dose: 200.0 mg/kg/injection, schedule: Q04DX003 (ip), vehicle: saline with Tween-80
  T/C: 105 % of control

## Cn1nc(Br)c(=O)n(C(c2ccccc2)c2ccccc2)c1=O
dose: 22.0 mg/kg/injection, schedule: Q01DX015 (ip), vehicle: other
  T/C: 110 % of control
dose: 33.0 mg/kg/injection, schedule: Q01DX015 (ip), vehicle: other
  T/C: 103 % of control
dose: 44.0 mg/kg/injection, schedule: Q01DX001 (ip), vehicle: other
  T/C: 100 % of control
dose: 50.0 mg/kg/injection, schedule: Q01DX015 (ip), vehicle: other
  T/C: 103 % of control
dose: 66.0 mg/kg/injection, schedule: Q01DX001 (ip), vehicle: other
  T/C: 102 % of control and 108 % of control
dose: 75.0 mg/kg/injection, schedule: Q01DX015 (ip), vehicle: other
  T/C: 106 % of control
dose: 150.0 mg/kg/injection, schedule: Q01DX001 (ip), vehicle: other
  T/C: 100 % of control and 104 % of control
dose: 200.0 mg/kg/injection, schedule: Q01DX001 (ip), vehicle: other
  T/C: 154 % of control
dose: 400.0 mg/kg/injection, schedule: Q01DX001 (ip), vehicle: other
  T/C: 154 % of control
